# Test results reported in ChEMBL document CHEMBL5120784, “Discovery of a novel 2-aminopyrazine-3-carboxamide as a potent and selective inhibitor of Activin Receptor-Like Kinase-2 (ALK2) for the treatment of fibrodysplasia ossificans progressiva” (Bioorg Med Chem Lett, 2022).
# How the values were obtained:
# [1] = Microsomal stability in mouse liver microsomes assessed as clearance; type: ADME, Microsome
# [2] = Permeability of compound by PAMPA assay; type: ADME; set-up: reference not given here
# [3] = Aqueous solubility of compound at pH 6.8; type: physicochemical
# [4] = target: Non-receptor tyrosine-protein kinase TYK2 (Homo sapiens) (UniProt P29597); assay: Binding affinity to wild type TYK2 JH2 domain (unknown origin) assessed as percent of control at 1 uM by Kinomescan method relative to control
# Non-receptor tyrosine-protein kinase TYK2 (Homo sapiens), sequence (P29597 whole entry, the tested form may be a part): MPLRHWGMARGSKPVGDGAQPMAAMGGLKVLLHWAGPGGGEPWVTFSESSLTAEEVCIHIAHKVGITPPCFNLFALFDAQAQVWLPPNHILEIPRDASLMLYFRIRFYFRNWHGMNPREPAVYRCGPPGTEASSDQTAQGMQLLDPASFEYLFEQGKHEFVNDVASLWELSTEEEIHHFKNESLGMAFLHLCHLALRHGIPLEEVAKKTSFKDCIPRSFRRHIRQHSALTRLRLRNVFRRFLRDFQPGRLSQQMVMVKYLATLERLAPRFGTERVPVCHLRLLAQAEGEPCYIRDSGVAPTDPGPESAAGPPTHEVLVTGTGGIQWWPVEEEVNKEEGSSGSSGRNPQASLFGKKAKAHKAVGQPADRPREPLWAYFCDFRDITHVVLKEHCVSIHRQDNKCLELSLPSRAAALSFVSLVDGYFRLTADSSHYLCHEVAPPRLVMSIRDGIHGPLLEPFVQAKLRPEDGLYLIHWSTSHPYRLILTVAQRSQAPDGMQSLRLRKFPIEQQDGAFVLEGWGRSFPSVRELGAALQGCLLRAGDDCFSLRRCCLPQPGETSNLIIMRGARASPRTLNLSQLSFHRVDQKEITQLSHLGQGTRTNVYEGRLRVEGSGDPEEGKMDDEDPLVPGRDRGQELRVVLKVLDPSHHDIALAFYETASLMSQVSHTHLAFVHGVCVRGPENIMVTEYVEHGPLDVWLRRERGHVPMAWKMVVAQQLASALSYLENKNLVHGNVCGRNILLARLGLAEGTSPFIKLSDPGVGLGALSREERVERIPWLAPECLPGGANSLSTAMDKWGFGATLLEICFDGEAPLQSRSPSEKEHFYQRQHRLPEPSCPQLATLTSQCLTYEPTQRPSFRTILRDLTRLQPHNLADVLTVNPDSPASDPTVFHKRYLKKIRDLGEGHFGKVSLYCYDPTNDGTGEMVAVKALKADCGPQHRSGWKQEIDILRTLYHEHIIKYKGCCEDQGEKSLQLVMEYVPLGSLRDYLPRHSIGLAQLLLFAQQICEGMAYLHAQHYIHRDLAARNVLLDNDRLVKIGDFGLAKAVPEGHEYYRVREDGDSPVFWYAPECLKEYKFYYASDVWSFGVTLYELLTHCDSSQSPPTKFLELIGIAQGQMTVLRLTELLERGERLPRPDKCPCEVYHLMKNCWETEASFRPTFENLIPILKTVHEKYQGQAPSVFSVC
# [5] = target: T1, Bone morphogenetic protein receptor type-1A (Homo sapiens, UniProt P36894); assay: Binding affinity to wild type ALK3 (unknown origin) assessed as percent of control at 1 uM by Kinomescan method relative to control
# T1 sequence (P36894 whole entry): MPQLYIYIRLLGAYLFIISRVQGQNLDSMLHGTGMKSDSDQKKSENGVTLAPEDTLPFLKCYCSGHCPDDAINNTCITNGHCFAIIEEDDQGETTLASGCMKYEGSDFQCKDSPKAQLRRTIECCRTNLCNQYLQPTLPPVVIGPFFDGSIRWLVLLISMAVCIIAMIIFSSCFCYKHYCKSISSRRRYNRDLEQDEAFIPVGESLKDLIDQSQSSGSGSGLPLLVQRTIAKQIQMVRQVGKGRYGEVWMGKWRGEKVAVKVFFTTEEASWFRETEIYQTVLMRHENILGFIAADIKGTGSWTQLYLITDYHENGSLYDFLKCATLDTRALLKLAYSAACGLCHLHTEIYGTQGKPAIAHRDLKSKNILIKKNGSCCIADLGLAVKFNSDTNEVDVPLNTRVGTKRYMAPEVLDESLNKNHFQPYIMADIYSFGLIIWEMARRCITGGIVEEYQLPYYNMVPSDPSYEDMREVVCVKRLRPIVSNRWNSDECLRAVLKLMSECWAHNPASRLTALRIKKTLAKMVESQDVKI
# Activin receptor type-1 [6] = target: T2, Activin receptor type-1 (Homo sapiens, UniProt Q04771, R206H); assay: Inhibition of ALK2 R206H mutant (unknown origin) assessed as enzymatic activity by microfluidic mobility shift assay
# T2 sequence (Q04771 21-509 R206H limits assumed): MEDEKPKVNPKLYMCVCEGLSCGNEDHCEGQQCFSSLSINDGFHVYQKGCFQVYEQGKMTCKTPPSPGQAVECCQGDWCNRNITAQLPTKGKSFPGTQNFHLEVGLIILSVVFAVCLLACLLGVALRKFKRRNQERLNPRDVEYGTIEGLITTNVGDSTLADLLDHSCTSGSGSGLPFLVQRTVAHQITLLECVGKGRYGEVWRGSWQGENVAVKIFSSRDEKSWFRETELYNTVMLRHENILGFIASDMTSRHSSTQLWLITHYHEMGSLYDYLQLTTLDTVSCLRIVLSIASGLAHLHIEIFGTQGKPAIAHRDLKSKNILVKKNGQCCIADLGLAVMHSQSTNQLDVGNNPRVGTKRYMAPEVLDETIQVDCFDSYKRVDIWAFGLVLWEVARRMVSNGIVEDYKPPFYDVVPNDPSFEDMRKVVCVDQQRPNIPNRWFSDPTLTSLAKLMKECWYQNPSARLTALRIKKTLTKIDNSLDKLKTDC
# Activin receptor type-1 [7] = target: T2, Activin receptor type-1; assay: Inhibition of ALK2 R206H mutant (unknown origin) transfected in BMP6-stimulated human HEK293 cells by luciferase reporter gene assay; type: cell-based
# [8] = target: T3, Bone morphogenetic protein receptor type-1B (Homo sapiens, UniProt O00238); assay: Inhibition of wild type ALK6 (unknown origin) assessed as enzymatic activity using chemiluminescent substrate by ADP-Glo assay
# T3 sequence (O00238 whole entry): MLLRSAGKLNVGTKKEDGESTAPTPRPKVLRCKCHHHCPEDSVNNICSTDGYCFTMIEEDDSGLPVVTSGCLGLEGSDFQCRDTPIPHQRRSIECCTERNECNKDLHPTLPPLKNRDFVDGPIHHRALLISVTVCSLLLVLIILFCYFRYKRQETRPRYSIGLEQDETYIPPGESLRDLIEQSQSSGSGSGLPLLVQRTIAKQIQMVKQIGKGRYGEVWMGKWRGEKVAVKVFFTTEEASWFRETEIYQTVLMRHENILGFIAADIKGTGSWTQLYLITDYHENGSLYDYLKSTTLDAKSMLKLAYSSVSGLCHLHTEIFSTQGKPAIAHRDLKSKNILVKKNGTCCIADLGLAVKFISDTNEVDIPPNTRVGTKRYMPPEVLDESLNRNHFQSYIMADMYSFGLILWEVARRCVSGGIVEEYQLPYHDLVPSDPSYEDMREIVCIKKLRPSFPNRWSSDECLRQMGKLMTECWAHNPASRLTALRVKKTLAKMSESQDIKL
# [9] = target: T4, Activin receptor type-1-like (Homo sapiens, UniProt P37023); assay: Binding affinity to wild type ALK1 (unknown origin) assessed as percent of control at 1 uM by Kinomescan method relative to control
# T4 sequence (P37023 whole entry): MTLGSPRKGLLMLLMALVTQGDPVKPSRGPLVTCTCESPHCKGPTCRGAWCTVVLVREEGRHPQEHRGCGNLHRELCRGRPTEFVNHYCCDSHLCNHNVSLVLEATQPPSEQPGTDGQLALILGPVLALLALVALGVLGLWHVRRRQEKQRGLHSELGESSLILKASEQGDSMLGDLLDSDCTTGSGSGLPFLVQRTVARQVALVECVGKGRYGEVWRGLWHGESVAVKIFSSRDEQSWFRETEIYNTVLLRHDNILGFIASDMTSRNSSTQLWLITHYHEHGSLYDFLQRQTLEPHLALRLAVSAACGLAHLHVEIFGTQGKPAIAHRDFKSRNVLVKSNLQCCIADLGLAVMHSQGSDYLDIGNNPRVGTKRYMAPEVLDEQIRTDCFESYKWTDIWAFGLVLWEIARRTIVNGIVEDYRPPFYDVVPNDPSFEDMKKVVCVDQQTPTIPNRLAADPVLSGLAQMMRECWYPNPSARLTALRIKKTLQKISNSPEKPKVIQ
# [10] = target: Interferon-induced, double-stranded RNA-activated protein kinase (Homo sapiens) (UniProt P19525); assay: Binding affinity to wild type EIF2AK2 (unknown origin) assessed as percent of control at 1 uM by Kinomescan method relative to control
# Interferon-induced, double-stranded RNA-activated protein kinase (Homo sapiens), sequence (P19525 whole entry): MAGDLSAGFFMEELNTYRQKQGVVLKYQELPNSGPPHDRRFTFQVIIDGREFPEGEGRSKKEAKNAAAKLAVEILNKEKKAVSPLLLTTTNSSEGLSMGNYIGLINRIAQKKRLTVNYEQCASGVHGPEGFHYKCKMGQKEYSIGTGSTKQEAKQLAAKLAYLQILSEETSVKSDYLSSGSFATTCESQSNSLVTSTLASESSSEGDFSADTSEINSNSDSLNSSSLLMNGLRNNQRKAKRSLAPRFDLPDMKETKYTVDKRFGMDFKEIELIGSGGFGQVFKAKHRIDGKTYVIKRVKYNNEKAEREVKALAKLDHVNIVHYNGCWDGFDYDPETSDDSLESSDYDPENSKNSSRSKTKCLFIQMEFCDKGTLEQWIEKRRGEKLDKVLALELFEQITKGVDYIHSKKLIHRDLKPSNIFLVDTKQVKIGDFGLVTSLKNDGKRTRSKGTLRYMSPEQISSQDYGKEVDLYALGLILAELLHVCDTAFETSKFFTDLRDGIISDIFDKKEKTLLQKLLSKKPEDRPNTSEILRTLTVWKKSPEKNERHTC
# TGF-beta receptor type-1 = target: T5, TGF-beta receptor type-1 (Homo sapiens, UniProt P36897); assay: Inhibition of wild type ALK5 (unknown origin) assessed as enzymatic activity by microfluidic mobility shift assay
# T5 sequence (P36897 whole entry): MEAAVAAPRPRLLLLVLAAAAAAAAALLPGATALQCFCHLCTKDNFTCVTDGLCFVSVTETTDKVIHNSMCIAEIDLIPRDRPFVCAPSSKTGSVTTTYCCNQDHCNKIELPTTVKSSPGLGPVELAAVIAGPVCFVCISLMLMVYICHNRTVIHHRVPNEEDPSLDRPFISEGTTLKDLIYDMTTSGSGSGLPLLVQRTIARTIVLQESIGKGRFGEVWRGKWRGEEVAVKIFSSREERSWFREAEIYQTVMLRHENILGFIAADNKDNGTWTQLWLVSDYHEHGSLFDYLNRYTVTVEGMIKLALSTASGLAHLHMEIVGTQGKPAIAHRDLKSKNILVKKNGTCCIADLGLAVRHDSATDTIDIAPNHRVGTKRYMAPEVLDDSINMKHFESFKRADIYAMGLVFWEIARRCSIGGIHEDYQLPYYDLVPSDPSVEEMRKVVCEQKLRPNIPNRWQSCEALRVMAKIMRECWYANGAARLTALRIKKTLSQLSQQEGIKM
# [11] = target: Dual specificity protein kinase CLK2 (Homo sapiens) (UniProt P49760); assay: Binding affinity to wild type CLK2 (unknown origin) assessed as percent of control at 1 uM by Kinomescan method relative to control
# Dual specificity protein kinase CLK2 (Homo sapiens), sequence (P49760 whole entry, looked up): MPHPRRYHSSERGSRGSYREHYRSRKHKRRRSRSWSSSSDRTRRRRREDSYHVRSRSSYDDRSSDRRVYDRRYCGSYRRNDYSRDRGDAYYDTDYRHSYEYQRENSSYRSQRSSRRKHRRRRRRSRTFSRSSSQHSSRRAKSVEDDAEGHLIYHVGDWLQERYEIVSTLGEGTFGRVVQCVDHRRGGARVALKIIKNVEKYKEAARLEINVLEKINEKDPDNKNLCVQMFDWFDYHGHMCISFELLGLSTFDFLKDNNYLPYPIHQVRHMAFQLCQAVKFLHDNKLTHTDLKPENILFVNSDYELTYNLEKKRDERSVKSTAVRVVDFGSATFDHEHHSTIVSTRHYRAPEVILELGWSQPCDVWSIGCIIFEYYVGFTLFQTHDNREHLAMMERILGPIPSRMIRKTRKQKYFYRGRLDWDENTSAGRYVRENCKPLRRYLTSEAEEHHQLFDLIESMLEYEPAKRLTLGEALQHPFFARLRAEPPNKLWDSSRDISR
# [12] = target: T6, Activin receptor type-1 (Homo sapiens) (UniProt Q04771); assay: Binding affinity to wild type ALK2 (unknown origin) assessed as percent of control at 1 uM by Kinomescan method relative to control
# T6 sequence (whole entry): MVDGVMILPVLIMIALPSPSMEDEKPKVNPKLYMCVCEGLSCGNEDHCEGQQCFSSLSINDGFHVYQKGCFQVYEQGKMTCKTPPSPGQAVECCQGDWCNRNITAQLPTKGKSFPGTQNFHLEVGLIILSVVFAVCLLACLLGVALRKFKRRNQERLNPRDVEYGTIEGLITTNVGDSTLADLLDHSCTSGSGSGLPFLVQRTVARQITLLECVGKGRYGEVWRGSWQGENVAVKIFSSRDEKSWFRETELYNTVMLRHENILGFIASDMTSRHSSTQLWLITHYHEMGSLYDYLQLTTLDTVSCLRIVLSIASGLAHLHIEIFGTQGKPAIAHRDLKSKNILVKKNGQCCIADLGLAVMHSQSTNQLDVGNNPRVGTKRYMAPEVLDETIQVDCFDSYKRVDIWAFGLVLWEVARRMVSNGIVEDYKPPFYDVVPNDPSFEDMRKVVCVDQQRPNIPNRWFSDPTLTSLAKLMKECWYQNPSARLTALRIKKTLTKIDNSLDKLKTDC
# Homo sapiens [13] = species: Homo sapiens; assay: Selectivity ratio of IC50 for inhibition of wild type ALK5 (unknown origin) to IC50 for Inhibition of ALK2 R206H mutant (unknown origin)
# [14] = target: T3, Bone morphogenetic protein receptor type-1B; assay: Binding affinity to wild type ALK6 (unknown origin) assessed as percent of control at 1 uM by Kinomescan method relative to control
# Homo sapiens [15] = species: Homo sapiens; assay: Selectivity ratio of IC50 for inhibition of wild type ALK3 (unknown origin) to IC50 for inhibition of ALK2 R206H mutant (unknown origin)
# [16] = target: Dual specificity protein kinase CLK1 (Homo sapiens) (UniProt P49759); assay: Binding affinity to wild type CLK1 (unknown origin) assessed as percent of control at 1 uM by Kinomescan method relative to control
# Activin receptor type-1 [17] = target: T7, Activin receptor type-1 (Homo sapiens, UniProt Q04771); assay: Inhibition of wild type ALK2 (unknown origin) assessed as enzymatic activity by microfluidic mobility shift assay
# T7 sequence (Q04771 whole entry): T6 sequence (whole entry)
# [18] = target: T4, Activin receptor type-1-like; assay: Inhibition of wild type ALK1 (unknown origin) assessed as enzymatic activity by microfluidic mobility shift assay
# [19] = target: Serine/threonine-protein kinase 38 (Homo sapiens) (UniProt Q15208); assay: Binding affinity to wild type STK38 (unknown origin) assessed as percent of control at 1 uM by Kinomescan method relative to control
# Serine/threonine-protein kinase 38 (Homo sapiens), sequence (Q15208 2-465 limits assumed): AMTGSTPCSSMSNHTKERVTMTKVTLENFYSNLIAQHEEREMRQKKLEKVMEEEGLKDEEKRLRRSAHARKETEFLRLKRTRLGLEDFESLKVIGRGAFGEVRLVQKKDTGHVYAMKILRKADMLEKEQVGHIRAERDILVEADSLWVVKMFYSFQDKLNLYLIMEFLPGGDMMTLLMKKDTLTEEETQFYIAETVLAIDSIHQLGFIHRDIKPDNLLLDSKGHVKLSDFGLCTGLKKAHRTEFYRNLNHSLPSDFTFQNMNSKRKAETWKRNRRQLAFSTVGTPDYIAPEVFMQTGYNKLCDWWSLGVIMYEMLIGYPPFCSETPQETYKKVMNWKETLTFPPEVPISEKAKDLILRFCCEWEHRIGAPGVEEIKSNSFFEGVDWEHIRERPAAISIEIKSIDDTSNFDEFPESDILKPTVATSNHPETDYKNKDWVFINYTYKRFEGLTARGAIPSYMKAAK
# [20] = target: T1, Bone morphogenetic protein receptor type-1A; assay: Inhibition of wild type ALK3 (unknown origin) assessed as enzymatic activity using chemiluminescent substrate by ADP-Glo assay
# Homo sapiens [21] = species: Homo sapiens; assay: Selectivity ratio of IC50 for inhibition of wild type ALK2 (unknown origin) to IC50 for inhibition of ALK2 R206H mutant (unknown origin)
# Homo sapiens [22] = species: Homo sapiens; assay: Selectivity ratio of IC50 for inhibition of wild type ALK1 (unknown origin) to IC50 for inhibition of ALK2 R206H mutant (unknown origin)
# Homo sapiens [23] = species: Homo sapiens; assay: Selectivity ratio of IC50 for inhibition of wild type ALK6 (unknown origin) to IC50 for inhibition of ALK2 R206H mutant (unknown origin)
smiles,measurement,setting,value
Nc1ncc(-c2ccc(CN3CCC(N4CCOCC4)CC3)cc2Cl)nc1C(=O)N[C@H]1CC[C@H](O)CC1,CLH,[1],74 µL/min/mg
same,permeability,[2],96%
same,solubility,[3],> 1000 µM
CC(C)NC(=O)c1nc(-c2ccc(CN(C)C)cc2)cnc1N,CLH,[1],634 µL/min/mg
same,permeability,[2],100%
same,solubility,[3],> 1000 µM
CN(C)Cc1ccc(-c2cnc(N)c(C(=O)NC[C@@](C)(O)C(F)(F)F)n2)cc1,CLH,[1],126 µL/min/mg
same,permeability,[2],99%
same,solubility,[3],510 µM
CCN(CC)Cc1ccc(-c2cnc(N)c(C(=O)NC[C@@](C)(O)C(F)(F)F)n2)cc1,CLH,[1],58 µL/min/mg
same,permeability,[2],99%
same,solubility,[3],> 1000 µM
CN(C)Cc1ccc(-c2cnc(N)c(C(=O)NC3CCC(O)CC3)n2)cc1 (centres undefined),CLH,[1],64 µL/min/mg
same,permeability,[2],94%
same,solubility,[3],850 µM
CN(C)Cc1ccc(-c2cnc(N)c(C(=O)NC3CCCC3O)n2)cc1 (centres undefined),CLH,[1],179 µL/min/mg
same,permeability,[2],99%
same,solubility,[3],940 µM
CC(O)CNC(=O)c1nc(-c2ccc(CN(C)C)cc2)cnc1N (racemic),CLH,[1],103 µL/min/mg
same,permeability,[2],77%
same,solubility,[3],> 1000 µM
CN(C)Cc1ccc(-c2cnc(N)c(C(=O)NC3CCCCC3)n2)cc1,CLH,[1],839 µL/min/mg
same,permeability,[2],100%
same,solubility,[3],190 µM
Nc1ncc(-c2ccc(CN3CCC(N4CCOCC4)CC3)cc2)nc1C(=O)N[C@H]1CC[C@H](O)CC1,CLH,[1],19 µL/min/mg
same,permeability,[2],65%
same,solubility,[3],> 1000 µM
CCNC(=O)c1nc(-c2ccc(CN(C)C)cc2)cnc1N,CLH,[1],373 µL/min/mg
same,permeability,[2],99%
same,solubility,[3],> 1000 µM
CC(C)N1CCN(Cc2ccc(-c3cnc(N)c(C(=O)NC[C@@](C)(O)C(F)(F)F)n3)cc2)CC1,CLH,[1],28 µL/min/mg
same,permeability,[2],99%
same,solubility,[3],> 1000 µM
C[C@@](O)(CNC(=O)c1nc(-c2ccc(CN3CCS(=O)(=O)CC3)cc2)cnc1N)C(F)(F)F,CLH,[1],20 µL/min/mg
same,permeability,[2],45%
same,solubility,[3],4 µM
Nc1ncc(-c2ccc(CN3CCC(N4CCCC4)CC3)cc2)nc1C(=O)N[C@H]1CC[C@H](O)CC1 (stereo in doubt; 19),CLH,[1],23 µL/min/mg
same,permeability,[2],62%
C[C@@](O)(CNC(=O)c1nc(-c2ccc(CN3CCCC3)cc2)cnc1N)C(F)(F)F,CLH,[1],41 µL/min/mg
same,permeability,[2],99%
same,solubility,[3],> 1000 µM
C[C@@](O)(CNC(=O)c1nc(-c2ccc(CN3CCOCC3)cc2)cnc1N)C(F)(F)F,CLH,[1],86 µL/min/mg
same,permeability,[2],99%
same,solubility,[3],190 µM
CN(C)Cc1ccc(-c2cnc(N)c(C(=O)NCC(O)C(F)(F)F)n2)cc1 (centres undefined),CLH,[1],159 µL/min/mg
same,permeability,[2],93%
same,solubility,[3],880 µM
CC(C)N1CCN(Cc2ccc(-c3cnc(N)c(C(=O)N[C@H]4CC[C@H](O)CC4)n3)cc2)CC1,CLH,[1],12 µL/min/mg
same,permeability,[2],85%
same,solubility,[3],830 µM
C[C@@](O)(CNC(=O)c1nc(-c2ccc(CN3CCNCC3)cc2)cnc1N)C(F)(F)F,CLH,[1],< 10 µL/min/mg
same,permeability,[2],42%
same,solubility,[3],> 1000 µM
Nc1ncc(-c2ccc(CN3CCC(N4CCOCC4)CC3)cc2Cl)nc1C(=O)NC12CCC(O)(CC1)CC2,Activity,[4],24%
same,Activity,[5],11%
same,CLH,[1],55 µL/min/mg
same,IC50,Activin receptor type-1 [6],8 nM
same,IC50,Activin receptor type-1 [7],44 nM
same,IC50,[8],2100 nM
same,Activity,[9],8.5%
same,Activity,[10],14%
same,IC50,TGF-beta receptor type-1,2200 nM
same,Activity,[11],27%
same,Activity,[12],2%
same,Ratio IC50,Homo sapiens [13],275
same,Activity,[14],0.7%
same,Ratio IC50,Homo sapiens [15],35
same,Activity,[16],29%
same,permeability,[2],99%
same,IC50,Activin receptor type-1 [17],12 nM
same,solubility,[3],420 µM
same,IC50,[18],120 nM
same,Activity,[19],14%
same,IC50,[20],280 nM
same,Ratio IC50,Homo sapiens [21],1.5
same,Ratio IC50,Homo sapiens [22],15
same,Ratio IC50,Homo sapiens [23],263
Nc1ncc(-c2ccc(CN3CCC(N4CCCC4)CC3)cc2)nc1C(=O)N[C@H]1CC[C@H](O)CC1 (stereo in doubt; 18),CLH,[1],< 10 µL/min/mg
same,permeability,[2],56%
same,solubility,[3],> 1000 µM
C[C@]1(O)CC[C@H](NC(=O)c2nc(-c3ccc(CN4CCC(N5CCOCC5)CC4)cc3Cl)cnc2N)CC1,CLH,[1],197 µL/min/mg
CCN(CC)C1CCN(Cc2ccc(-c3cnc(N)c(C(=O)N[C@H]4CC[C@H](O)CC4)n3)cc2)CC1,CLH,[1],< 10 µL/min/mg
same,permeability,[2],61%
same,solubility,[3],> 1000 µM
